Assay results from PubChem BioAssay (NCI).
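Cells were grown in 96-well plates and exposed to each compound for 48 hours at five concentrations; endpoints were interpolated linearly between bracketing concentrations, or set to the highest concentration if not reached. Here, GI50 denotes the concentration required for 50% inhibition of growth. TGI: total growth inhibition.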

Experiments:
Experiment in all cases: growth of human tumour cells (NCI), 48 h
786-0 renal = test system: 786-0 renal
A498 renal = test system: A498 renal
A549 NSCLC = test system: A549 NSCLC
ACHN renal = test system: ACHN renal
BT-549 breast = test system: BT-549 breast
CAKI-1 renal = test system: CAKI-1 renal
CCRF-CEM leukemia = test system: CCRF-CEM leukemia
COLO 205 colon = test system: COLO 205 colon
DU-145 prostate = test system: DU-145 prostate
EKVX NSCLC = test system: EKVX NSCLC
HCT-116 colon = test system: HCT-116 colon
HCT-15 colon = test system: HCT-15 colon
HL-60(TB) leukemia = test system: HL-60(TB) leukemia
HOP-62 NSCLC = test system: HOP-62 NSCLC
HOP-92 NSCLC = test system: HOP-92 NSCLC
HS 578T breast = test system: HS 578T breast
HT29 colon = test system: HT29 colon
IGROV1 ovarian = test system: IGROV1 ovarian
K-562 leukemia = test system: K-562 leukemia
KM12 colon = test system: KM12 colon
LOX IMVI melanoma = test system: LOX IMVI melanoma
M14 melanoma = test system: M14 melanoma
MCF7 breast = test system: MCF7 breast
MDA-MB-231 breast = test system: MDA-MB-231 breast
MDA-MB-435 = test system: MDA-MB-435
MOLT-4 leukemia = test system: MOLT-4 leukemia
NCI-H226 lung = test system: NCI-H226 lung
NCI-H23 lung = test system: NCI-H23 lung
NCI-H460 lung = test system: NCI-H460 lung
NCI-H522 lung = test system: NCI-H522 lung
NCI/ADR-RES ovarian = test system: NCI/ADR-RES ovarian
OVCAR-3 ovarian = test system: OVCAR-3 ovarian
OVCAR-4 ovarian = test system: OVCAR-4 ovarian
OVCAR-5 ovarian = test system: OVCAR-5 ovarian
RPMI-8226 leukemia = test system: RPMI-8226 leukemia
RXF 393 renal = test system: RXF 393 renal
SF-268 CNS = test system: SF-268 CNS
SF-295 CNS = test system: SF-295 CNS
SF-539 CNS = test system: SF-539 CNS
SK-MEL-2 melanoma = test system: SK-MEL-2 melanoma
SK-MEL-28 melanoma = test system: SK-MEL-28 melanoma
SK-MEL-5 melanoma = test system: SK-MEL-5 melanoma
SK-OV-3 ovarian = test system: SK-OV-3 ovarian
SN12C renal = test system: SN12C renal
SNB-19 CNS = test system: SNB-19 CNS
SNB-75 CNS = test system: SNB-75 CNS
SR leukemia = test system: SR leukemia
SW-620 colon = test system: SW-620 colon
T-47D breast = test system: T-47D breast
TK-10 renal = test system: TK-10 renal
U251 CNS = test system: U251 CNS
UACC-257 melanoma = test system: UACC-257 melanoma
UACC-62 melanoma = test system: UACC-62 melanoma
UO-31 renal = test system: UO-31 renal
HCC-2998 colon = test system: HCC-2998 colon
MALME-3M melanoma = test system: MALME-3M melanoma
OVCAR-8 ovarian = test system: OVCAR-8 ovarian

Structure (SMILES): Cc1cc2c(cc1Cl)SC(NS(=O)(=O)c1ccc(Cl)cc1)=NS2(=O)=O
- TGI (786-0 renal): > 100 µM
- TGI (A498 renal): > 100 µM
- TGI (A549 NSCLC): > 100 µM
- TGI (ACHN renal): > 100 µM
- TGI (BT-549 breast): > 100 µM
- TGI (CAKI-1 renal): > 100 µM
- TGI (CCRF-CEM leukemia): > 100 µM
- TGI (COLO 205 colon): > 100 µM
- TGI (DU-145 prostate): > 100 µM
- TGI (EKVX NSCLC): > 100 µM
- TGI (HCT-116 colon): > 100 µM
- TGI (HCT-15 colon): > 100 µM
- TGI (HL-60(TB) leukemia): > 100 µM
- TGI (HOP-62 NSCLC): > 100 µM
- TGI (HOP-92 NSCLC): 39.5 µM
- TGI (HS 578T breast): > 100 µM
- TGI (HT29 colon): > 100 µM
- TGI (IGROV1 ovarian): > 100 µM
- TGI (K-562 leukemia): > 100 µM
- TGI (KM12 colon): > 100 µM
- TGI (LOX IMVI melanoma): > 100 µM
- TGI (M14 melanoma): > 100 µM
- TGI (MCF7 breast): > 100 µM
- TGI (MDA-MB-231 breast): > 100 µM
- TGI (MDA-MB-435): > 100 µM
- TGI (MOLT-4 leukemia): 73 µM
- TGI (NCI-H226 lung): > 100 µM
- TGI (NCI-H23 lung): > 100 µM
- TGI (NCI-H460 lung): > 100 µM
- TGI (NCI-H522 lung): 84.2 µM
- TGI (NCI/ADR-RES ovarian): > 100 µM
- TGI (OVCAR-3 ovarian): > 100 µM
- TGI (OVCAR-4 ovarian): > 100 µM
- TGI (OVCAR-5 ovarian): > 100 µM
- TGI (RPMI-8226 leukemia): > 100 µM
- TGI (RXF 393 renal): 66.5 µM
- TGI (SF-268 CNS): > 100 µM
- TGI (SF-295 CNS): 88.3 µM
- TGI (SF-539 CNS): 73.9 µM
- TGI (SK-MEL-2 melanoma): > 100 µM
- TGI (SK-MEL-28 melanoma): > 100 µM
- TGI (SK-MEL-5 melanoma): > 100 µM
- TGI (SK-OV-3 ovarian): > 100 µM
- TGI (SN12C renal): > 100 µM
- TGI (SNB-19 CNS): > 100 µM
- TGI (SNB-75 CNS): > 100 µM
- TGI (SR leukemia): 30.4 µM
- TGI (SW-620 colon): > 100 µM
- TGI (T-47D breast): > 100 µM
- TGI (TK-10 renal): 69.5 µM
- TGI (U251 CNS): > 100 µM
- TGI (UACC-257 melanoma): > 100 µM
- TGI (UACC-62 melanoma): > 100 µM
- TGI (UO-31 renal): > 100 µM

Structure (SMILES): CN(C)CCCNC(=O)c1cc2[nH]c3c(cnc4ccc([N+](=O)[O-])cc43)c(=O)c2n1C
- GI50 (A498 renal): 55.1 µM
- TGI (A498 renal): > 100 µM
- GI50 (A549 NSCLC): 17.9 µM
- TGI (A549 NSCLC): 32.1 µM
- GI50 (ACHN renal): 14.5 µM
- TGI (ACHN renal): 27.9 µM
- GI50 (BT-549 breast): 20.2 µM
- TGI (BT-549 breast): 43.2 µM
- GI50 (CCRF-CEM leukemia): 14.5 µM
- TGI (CCRF-CEM leukemia): 30.6 µM
- GI50 (COLO 205 colon): 16.5 µM
- TGI (COLO 205 colon): 30.1 µM
- GI50 (DU-145 prostate): 12.6 µM
- TGI (DU-145 prostate): 25.1 µM
- GI50 (EKVX NSCLC): 23.5 µM
- TGI (EKVX NSCLC): 52.3 µM
- GI50 (HCC-2998 colon): 15.6 µM
- TGI (HCC-2998 colon): 29 µM
- GI50 (HCT-116 colon): 6.8 µM
- TGI (HCT-116 colon): 20.1 µM
- GI50 (HCT-15 colon): 15.2 µM
- TGI (HCT-15 colon): 31.8 µM
- GI50 (HL-60(TB) leukemia): 12.2 µM
- TGI (HL-60(TB) leukemia): 34.4 µM
- GI50 (HOP-62 NSCLC): 17.2 µM
- TGI (HOP-62 NSCLC): 30.9 µM
- GI50 (HOP-92 NSCLC): 13.5 µM
- TGI (HOP-92 NSCLC): 32.1 µM
- GI50 (HS 578T breast): 18.1 µM
- TGI (HS 578T breast): 41.3 µM
- GI50 (HT29 colon): 5.93 µM
- TGI (HT29 colon): 18.6 µM
- GI50 (IGROV1 ovarian): 12.5 µM
- TGI (IGROV1 ovarian): 27.7 µM
- GI50 (K-562 leukemia): 15.8 µM
- TGI (K-562 leukemia): 33.1 µM
- GI50 (KM12 colon): 12 µM
- TGI (KM12 colon): 25.2 µM
- GI50 (LOX IMVI melanoma): 14.4 µM
- TGI (LOX IMVI melanoma): 27.5 µM
- GI50 (M14 melanoma): 17.3 µM
- TGI (M14 melanoma): 31.1 µM
- GI50 (MALME-3M melanoma): 21.3 µM
- TGI (MALME-3M melanoma): 40.4 µM
- GI50 (MCF7 breast): 15.5 µM
- TGI (MCF7 breast): 28.9 µM
- GI50 (MDA-MB-231 breast): 16.9 µM
- TGI (MDA-MB-231 breast): 30.7 µM
- GI50 (MDA-MB-435): 17.3 µM
- TGI (MDA-MB-435): 33.6 µM
- GI50 (MOLT-4 leukemia): 13.5 µM
- TGI (MOLT-4 leukemia): 33.9 µM
- GI50 (NCI-H226 lung): 49.8 µM
- TGI (NCI-H226 lung): > 100 µM
- GI50 (NCI-H23 lung): 20.5 µM
- TGI (NCI-H23 lung): 44.1 µM
- GI50 (NCI-H460 lung): 13.3 µM
- TGI (NCI-H460 lung): 26 µM
- GI50 (NCI-H522 lung): 17.4 µM
- TGI (NCI-H522 lung): 32.1 µM
- GI50 (NCI/ADR-RES ovarian): 22 µM
- TGI (NCI/ADR-RES ovarian): 49.6 µM
- GI50 (OVCAR-3 ovarian): 19.4 µM
- TGI (OVCAR-3 ovarian): 45.9 µM
- GI50 (OVCAR-4 ovarian): 14 µM
- TGI (OVCAR-4 ovarian): 31.6 µM
- GI50 (OVCAR-5 ovarian): 17.8 µM
- TGI (OVCAR-5 ovarian): 31.6 µM
- GI50 (OVCAR-8 ovarian): 20.2 µM
- TGI (OVCAR-8 ovarian): 43.2 µM
- GI50 (RPMI-8226 leukemia): 5.83 µM
- TGI (RPMI-8226 leukemia): 19.3 µM
- GI50 (RXF 393 renal): 4.88 µM
- TGI (RXF 393 renal): 18.7 µM
- GI50 (SF-268 CNS): 15.9 µM
- TGI (SF-268 CNS): 29.4 µM
- GI50 (SF-295 CNS): 26.9 µM
- TGI (SF-295 CNS): 51.4 µM
- GI50 (SF-539 CNS): 17.6 µM
- TGI (SF-539 CNS): 31.7 µM
- GI50 (SK-MEL-2 melanoma): > 100 µM
- TGI (SK-MEL-2 melanoma): > 100 µM
- GI50 (SK-MEL-28 melanoma): 19.7 µM
- TGI (SK-MEL-28 melanoma): 33.9 µM
- GI50 (SK-MEL-5 melanoma): 17.1 µM
- TGI (SK-MEL-5 melanoma): 31.1 µM
- GI50 (SK-OV-3 ovarian): 17.3 µM
- TGI (SK-OV-3 ovarian): 37.9 µM
- GI50 (SN12C renal): 20.8 µM
- TGI (SN12C renal): 35.4 µM
- GI50 (SNB-19 CNS): 17.7 µM
- TGI (SNB-19 CNS): 33.6 µM
- GI50 (SNB-75 CNS): 15.5 µM
- TGI (SNB-75 CNS): 28.9 µM
- GI50 (SR leukemia): 14.5 µM
- TGI (SR leukemia): 43.3 µM
- GI50 (SW-620 colon): 17.4 µM
- TGI (SW-620 colon): 34.5 µM
- GI50 (T-47D breast): 19.3 µM
- TGI (T-47D breast): 39.2 µM
- GI50 (TK-10 renal): 14.3 µM
- TGI (TK-10 renal): 28.2 µM
- GI50 (U251 CNS): 17.5 µM
- TGI (U251 CNS): 31.3 µM
- GI50 (UACC-257 melanoma): 21.2 µM
- TGI (UACC-257 melanoma): 39.7 µM
- GI50 (UO-31 renal): 17 µM
- TGI (UO-31 renal): 32.1 µM
